Measured values taken from ChEMBL document CHEMBL1145146, “Synthesis of digalactosyl diacylglycerols and their structure-inhibitory activity on human lanosterol synthase” (Bioorg Med Chem Lett, 2005).

Columns and labels:
Beta-secretase 1 = Beta-secretase 1 (Homo sapiens, UniProt P56817); assay: Binding affinity against human brain memapsin 2; format: tissue-based
[1] = biological target: T1, Lanosterol synthase (Homo sapiens) (UniProt P48449); assay: Inhibitory activity against lanosteral synthase at 0.5 umol/assay; parameters: scale not given: the % may be the effect or the level left
T1 sequence (whole entry): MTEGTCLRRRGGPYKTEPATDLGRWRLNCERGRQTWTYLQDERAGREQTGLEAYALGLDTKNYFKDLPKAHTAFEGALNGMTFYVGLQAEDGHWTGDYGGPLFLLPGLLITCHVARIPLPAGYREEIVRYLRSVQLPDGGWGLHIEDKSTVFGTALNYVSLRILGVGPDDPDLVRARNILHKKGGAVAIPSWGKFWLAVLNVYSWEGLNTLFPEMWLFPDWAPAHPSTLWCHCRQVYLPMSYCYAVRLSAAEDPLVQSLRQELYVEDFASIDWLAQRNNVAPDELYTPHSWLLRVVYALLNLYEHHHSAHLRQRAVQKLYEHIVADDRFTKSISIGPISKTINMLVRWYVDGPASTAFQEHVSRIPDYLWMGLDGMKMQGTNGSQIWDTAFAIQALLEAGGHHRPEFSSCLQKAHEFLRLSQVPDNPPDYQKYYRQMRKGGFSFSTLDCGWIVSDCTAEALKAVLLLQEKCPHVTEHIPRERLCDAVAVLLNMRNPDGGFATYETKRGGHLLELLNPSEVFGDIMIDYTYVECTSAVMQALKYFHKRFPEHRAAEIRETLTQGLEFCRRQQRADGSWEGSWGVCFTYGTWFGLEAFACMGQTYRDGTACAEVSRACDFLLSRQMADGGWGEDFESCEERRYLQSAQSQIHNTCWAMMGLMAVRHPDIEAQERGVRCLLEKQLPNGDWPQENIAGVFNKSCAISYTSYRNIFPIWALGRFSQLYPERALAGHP

[2] = biological target: T1, Lanosterol synthase (Homo sapiens); assay: Inhibitory activity against lanosteral synthase at 0.25 umol/assay; n.d. = not detected
[3] = biological target: T1, Lanosterol synthase (Homo sapiens); assay: Inhibitory activity against lanosteral synthase at 0.4 umol/assay; parameters: scale not given: the % may be the effect or the level left
[4] = biological target: T1, Lanosterol synthase (Homo sapiens); assay: Inhibitory activity against lanosteral synthase at 0.25 umol/assay; parameters: scale not given: the % may be the effect or the level left
[5] = biological target: T1, Lanosterol synthase (Homo sapiens); assay: Inhibitory activity against lanosteral synthase at 0.5 umol/assay; n.d. = not detected

Beta-secretase 1, sequence (P56817 whole entry): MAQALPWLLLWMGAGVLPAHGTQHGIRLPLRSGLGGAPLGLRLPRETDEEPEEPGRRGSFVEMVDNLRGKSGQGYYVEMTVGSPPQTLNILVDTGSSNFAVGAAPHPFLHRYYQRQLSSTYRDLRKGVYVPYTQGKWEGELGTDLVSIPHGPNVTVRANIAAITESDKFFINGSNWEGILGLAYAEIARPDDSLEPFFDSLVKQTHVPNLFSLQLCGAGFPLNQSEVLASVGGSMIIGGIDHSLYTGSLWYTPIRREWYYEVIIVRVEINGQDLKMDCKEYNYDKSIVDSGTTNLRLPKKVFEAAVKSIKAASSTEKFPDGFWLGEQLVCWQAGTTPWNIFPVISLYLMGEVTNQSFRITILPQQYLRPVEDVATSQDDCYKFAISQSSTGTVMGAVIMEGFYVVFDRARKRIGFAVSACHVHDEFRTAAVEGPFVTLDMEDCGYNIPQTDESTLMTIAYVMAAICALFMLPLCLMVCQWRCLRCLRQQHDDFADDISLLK

| Activity [1] [%] | Activity [4] [%] | Compound | also measured |
| --- | --- | --- | --- |
| – | – | C=CCNC(=O)C[C@H](NC(=O)C(NC(=O)OCC=C)C(C)C)C(=O)N[C@@H](CC(C)C)[C@@H](O)C[C@@H](C)C(=O)N[C@H](C(=O)NCc1ccccc1)C(C)C (stereo partly specified) | Ki (Beta-secretase 1): 26.6 nM |
| 20 | – | CC/C=C\C/C=C\C/C=C\CCCCCCCC(=O)OC(COC(=O)CCCCCCC/C=C\CCCCCC)CO[C@@H]1O[C@H](CO[C@H]2O[C@H](CO)[C@H](O)[C@H](O)[C@H]2O)[C@H](O)[C@H](O)[C@H]1O (stereo partly specified) | Activity [2]: Not detected |
| – | – | CC/C=C\C/C=C\C/C=C\CCCCCCCC(=O)OC(COC(=O)CCCCCCCCCCCCC)CO[C@@H]1OC(CO)[C@H](O)[C@@H](O)C1O (stereo partly specified) | Activity [3]: 23% |
| 38 | 22 | CC/C=C\C/C=C\C/C=C\CCCCCCCC(=O)OCC(CO[C@@H]1OC(CO[C@H]2OC(CO)[C@H](O)[C@@H](O)C2O)[C@H](O)[C@@H](O)C1O)OC(=O)CCCCCCCCCCCCC (stereo partly specified) | – |
| 45 | 35 | CCCCCC/C=C\CCCCCCCC(=O)OC(COC(=O)CCCCCCCCCCCCC)CO[C@@H]1OC(CO[C@H]2OC(CO)[C@H](O)[C@@H](O)C2O)[C@H](O)[C@@H](O)C1O (stereo partly specified) | – |
| 21 | 4 | CCCCCC/C=C\CCCCCCCC(=O)OCC(CO[C@@H]1O[C@H](CO[C@H]2O[C@H](CO)[C@H](O)[C@H](O)[C@H]2O)[C@H](O)[C@H](O)[C@H]1O)OC(=O)CCCCCCC/C=C/CCCCCCCC (stereo partly specified) | – |
| 24 | 4 | CCCCCC/C=C\CCCCCCCC(=O)OCC(CO[C@@H]1O[C@H](CO[C@H]2O[C@H](CO)[C@H](O)[C@H](O)[C@H]2O)[C@H](O)[C@H](O)[C@H]1O)OC(=O)CCCCCCC/C=C\CCCCCC (stereo partly specified) | – |
| – | – | OCC(O)CO[C@@H]1O[C@H](CO[C@H]2O[C@H](CO)[C@H](O)[C@H](O)[C@H]2O)[C@H](O)[C@H](O)[C@H]1O (stereo partly specified) | Activity [5]: Not detected; Activity [2]: Not detected |
| – | – | CC/C=C\C/C=C\C/C=C\CCCCCCCC(=O)OC(COC(=O)CCCCCCC/C=C\CCCCCC)CO[C@@H]1O[C@H](CO)[C@H](O)C(O)[C@H]1O (single isomer, unassigned) | Activity [3]: 16% |
| – | – | CC/C=C\C/C=C\C/C=C\CCCCCCCC(=O)OCC(CO[C@@H]1O[C@H](CO)[C@H](O)C(O)[C@H]1O)OC(=O)CCCCCCC/C=C\CCCCCCCC (single isomer, unassigned) | Activity [3]: 19% |
| 31 | 8 | CC/C=C\C/C=C\C/C=C\CCCCCCCC(=O)OCC(CO[C@@H]1O[C@H](CO[C@H]2O[C@H](CO)[C@H](O)C(O)[C@H]2O)[C@H](O)C(O)[C@H]1O)OC(=O)CCCCCCC/C=C/CCCCCCCC (single isomer, unassigned) | – |
| 46 | 24 | CCCCCC/C=C/CCCCCCCC(=O)OC(COC(=O)CCCCCCC/C=C/CCCCCCCC)CO[C@@H]1O[C@H](COC2O[C@H](CO)[C@H](O)C(O)[C@H]2O)[C@H](O)C(O)[C@H]1O (single isomer, unassigned) | – |
| 57 | 42 | CCCCCCCC/C=C/CCCCCCCC(=O)OCC(CO[C@@H]1O[C@H](CO[C@H]2O[C@H](CO)[C@H](O)C(O)[C@H]2O)[C@H](O)C(O)[C@H]1O)OC(=O)CCCCCCC/C=C/CCCCCCCC (single isomer, unassigned) | – |
| 72 | 51 | CCCCCCCCCCCCCC(=O)OCC(CO[C@@H]1O[C@H](CO[C@H]2O[C@H](CO)[C@H](O)C(O)[C@H]2O)[C@H](O)C(O)[C@H]1O)OC(=O)CCCCCCCCCCCCC (single isomer, unassigned) | – |
| 45 | 18 | CC/C=C\C/C=C\C/C=C\CCCCCCCC(=O)OCC(CO[C@@H]1O[C@H](CO[C@H]2O[C@H](CO)[C@H](O)C(O)[C@H]2O)[C@H](O)C(O)[C@H]1O)OC(=O)CCCCCCC/C=C\C/C=C\C/C=C\CC (single isomer, unassigned; 2d) | – |
| 40 | 9 | CC/C=C\C/C=C\C/C=C\CCCCCCCC(=O)OC(COC(=O)CCCCCCC/C=C/CCCCCCCC)CO[C@@H]1O[C@H](CO[C@H]2O[C@H](CO)[C@H](O)C(O)[C@H]2O)[C@H](O)C(O)[C@H]1O (single isomer, unassigned; 2f) | – |
| 29 | 7 | CC/C=C\C/C=C\C/C=C\CCCCCCCC(=O)OC(COC(=O)CCCCCCC/C=C/CCCCCCCC)CO[C@@H]1O[C@H](CO[C@H]2O[C@H](CO)[C@H](O)C(O)[C@H]2O)[C@H](O)C(O)[C@H]1O (single isomer, unassigned; 2i) | – |
| 27 | 3 | CC/C=C\C/C=C\C/C=C\CCCCCCCC(=O)OCC(CO[C@@H]1O[C@H](CO[C@H]2O[C@H](CO)[C@H](O)C(O)[C@H]2O)[C@H](O)C(O)[C@H]1O)OC(=O)CCCCCCC/C=C\CCCCCC (single isomer, unassigned; 2j) | – |
| 26 | – | CC/C=C\C/C=C\C/C=C\CCCCCCCC(=O)OCC(CO[C@@H]1O[C@H](CO[C@H]2O[C@H](CO)[C@H](O)C(O)[C@H]2O)[C@H](O)C(O)[C@H]1O)OC(=O)CCCCCCC/C=C\C/C=C\C/C=C\CC (single isomer, unassigned; 2k) | Activity [2]: Not detected |
| 26 | 5 | CC/C=C\C/C=C\C/C=C\CCCCCCCC(=O)OCC(CO[C@@H]1O[C@H](CO[C@H]2O[C@H](CO)[C@H](O)C(O)[C@H]2O)[C@H](O)C(O)[C@H]1O)OC(=O)CCCCCCC/C=C\CCCCCC (single isomer, unassigned; 2l) | – |
